Assay results from ChEMBL document CHEMBL1201862, “PubChem BioAssay data set” (2004).
The source made the active and inactive calls. Rule as the data show it, for most assays here: actives have a measured IC50 and inactives only a lower limit.

Experiments:
Caspase-3 = biological target: T1, Caspase-3 (Homo sapiens, UniProt P42574); format: functional;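 also: Dose-response selectivity test against caspase-3 for candidate inhibitors of sentrin-specific proteases (SENPs)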
T1 sequence (P42574 whole entry): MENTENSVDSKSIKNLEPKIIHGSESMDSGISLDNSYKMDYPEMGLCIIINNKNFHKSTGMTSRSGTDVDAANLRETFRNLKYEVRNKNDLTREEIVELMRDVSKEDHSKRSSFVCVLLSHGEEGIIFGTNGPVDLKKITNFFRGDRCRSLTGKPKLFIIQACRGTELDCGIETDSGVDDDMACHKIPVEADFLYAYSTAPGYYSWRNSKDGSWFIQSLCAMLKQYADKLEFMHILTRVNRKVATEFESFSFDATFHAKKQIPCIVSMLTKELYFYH

[1] = biological target: T2, Sentrin-specific protease 7 (Homo sapiens, UniProt Q9BQF6); format: functional;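 also: Luminescence-based dose-response confirmation of ultra-high-throughput screening hits, measuring inhibition of SENP7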
T2 sequence (Q9BQF6 whole entry): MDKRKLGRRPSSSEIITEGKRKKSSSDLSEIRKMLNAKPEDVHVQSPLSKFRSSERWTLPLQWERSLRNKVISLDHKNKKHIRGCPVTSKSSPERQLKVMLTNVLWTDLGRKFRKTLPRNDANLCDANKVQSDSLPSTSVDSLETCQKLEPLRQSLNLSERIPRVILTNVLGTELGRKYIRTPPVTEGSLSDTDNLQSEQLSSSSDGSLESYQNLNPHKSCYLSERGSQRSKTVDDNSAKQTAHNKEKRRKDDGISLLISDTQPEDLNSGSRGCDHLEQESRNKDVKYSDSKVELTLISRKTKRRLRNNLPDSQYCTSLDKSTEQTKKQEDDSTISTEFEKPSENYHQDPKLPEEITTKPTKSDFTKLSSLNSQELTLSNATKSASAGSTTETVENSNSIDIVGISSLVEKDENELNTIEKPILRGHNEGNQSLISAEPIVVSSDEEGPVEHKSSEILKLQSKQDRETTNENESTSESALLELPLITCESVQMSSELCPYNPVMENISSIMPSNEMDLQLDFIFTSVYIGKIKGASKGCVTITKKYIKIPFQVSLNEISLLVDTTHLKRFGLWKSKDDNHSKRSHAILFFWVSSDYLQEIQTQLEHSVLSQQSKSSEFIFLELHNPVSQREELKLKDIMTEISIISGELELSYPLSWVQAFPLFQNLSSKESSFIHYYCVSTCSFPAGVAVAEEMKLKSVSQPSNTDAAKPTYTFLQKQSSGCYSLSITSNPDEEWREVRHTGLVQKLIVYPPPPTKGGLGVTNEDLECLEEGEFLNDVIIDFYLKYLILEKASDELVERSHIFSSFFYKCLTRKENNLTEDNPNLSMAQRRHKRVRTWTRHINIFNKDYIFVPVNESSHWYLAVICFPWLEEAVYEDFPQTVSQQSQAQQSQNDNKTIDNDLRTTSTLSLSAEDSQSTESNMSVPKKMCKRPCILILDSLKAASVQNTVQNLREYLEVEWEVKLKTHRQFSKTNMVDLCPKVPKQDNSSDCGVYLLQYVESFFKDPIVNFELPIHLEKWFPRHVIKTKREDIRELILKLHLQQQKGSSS

[2] = biological target: T3, Sentrin-specific protease 6 (Homo sapiens, UniProt Q9GZR1); format: functional;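 also: Luminescence-based dose-response confirmatory assay of SENP6 inhibition, following up an ultra-high-throughput screen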
T3 sequence (Q9GZR1 whole entry): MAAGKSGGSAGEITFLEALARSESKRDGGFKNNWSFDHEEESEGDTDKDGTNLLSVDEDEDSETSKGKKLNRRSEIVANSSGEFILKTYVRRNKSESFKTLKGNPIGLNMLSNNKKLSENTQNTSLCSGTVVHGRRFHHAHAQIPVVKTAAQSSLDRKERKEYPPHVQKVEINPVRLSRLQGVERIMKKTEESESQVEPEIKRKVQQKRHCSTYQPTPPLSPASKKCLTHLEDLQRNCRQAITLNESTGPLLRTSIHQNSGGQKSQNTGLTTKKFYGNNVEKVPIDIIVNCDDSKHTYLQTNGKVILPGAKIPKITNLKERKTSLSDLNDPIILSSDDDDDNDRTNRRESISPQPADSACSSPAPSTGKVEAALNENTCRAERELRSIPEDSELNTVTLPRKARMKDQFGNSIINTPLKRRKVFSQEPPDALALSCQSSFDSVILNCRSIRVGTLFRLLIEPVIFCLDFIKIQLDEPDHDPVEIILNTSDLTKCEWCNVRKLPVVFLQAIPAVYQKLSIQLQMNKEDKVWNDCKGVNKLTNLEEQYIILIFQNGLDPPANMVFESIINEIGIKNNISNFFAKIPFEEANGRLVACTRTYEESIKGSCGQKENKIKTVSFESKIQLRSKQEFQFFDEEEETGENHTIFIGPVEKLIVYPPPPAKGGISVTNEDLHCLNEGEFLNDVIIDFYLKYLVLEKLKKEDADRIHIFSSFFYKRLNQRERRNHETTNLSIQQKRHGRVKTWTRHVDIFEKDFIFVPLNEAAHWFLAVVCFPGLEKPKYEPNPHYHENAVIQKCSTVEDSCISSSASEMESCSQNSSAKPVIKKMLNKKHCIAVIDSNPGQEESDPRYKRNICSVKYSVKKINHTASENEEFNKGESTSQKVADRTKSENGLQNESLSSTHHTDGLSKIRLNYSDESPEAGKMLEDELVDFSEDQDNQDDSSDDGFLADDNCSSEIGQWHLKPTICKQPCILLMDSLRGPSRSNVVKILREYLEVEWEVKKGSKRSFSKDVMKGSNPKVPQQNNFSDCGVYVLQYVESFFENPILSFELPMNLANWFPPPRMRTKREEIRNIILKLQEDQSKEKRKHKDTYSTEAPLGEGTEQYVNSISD

[3] = biological target: T4, Sentrin-specific protease 8 (Homo sapiens, UniProt Q96LD8); format: functional;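 also: luminescence read-out of SENP8 inhibition, dose-response confirmation following an ultra-high-throughput screen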
T4 sequence (Q96LD8 whole entry): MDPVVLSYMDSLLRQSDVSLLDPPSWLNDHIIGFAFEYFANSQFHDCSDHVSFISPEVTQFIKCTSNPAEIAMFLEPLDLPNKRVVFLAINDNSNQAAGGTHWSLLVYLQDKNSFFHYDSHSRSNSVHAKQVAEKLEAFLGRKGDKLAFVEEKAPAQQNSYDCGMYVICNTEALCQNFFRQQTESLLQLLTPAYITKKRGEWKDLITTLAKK

[4] = biological target: T5, Corticotropin-releasing factor receptor 2/Corticotropin-releasing factor-binding protein (Homo sapiens, UniProt P24387+Q13324); assay: Dose Response confirmation of uHTS hits for small molecule antagonists of the CRF-binding protein and CRF-R2 receptor complex.; format: functional; details: read-out: IC50_Mean
T5 sequence (Q13324 whole entry): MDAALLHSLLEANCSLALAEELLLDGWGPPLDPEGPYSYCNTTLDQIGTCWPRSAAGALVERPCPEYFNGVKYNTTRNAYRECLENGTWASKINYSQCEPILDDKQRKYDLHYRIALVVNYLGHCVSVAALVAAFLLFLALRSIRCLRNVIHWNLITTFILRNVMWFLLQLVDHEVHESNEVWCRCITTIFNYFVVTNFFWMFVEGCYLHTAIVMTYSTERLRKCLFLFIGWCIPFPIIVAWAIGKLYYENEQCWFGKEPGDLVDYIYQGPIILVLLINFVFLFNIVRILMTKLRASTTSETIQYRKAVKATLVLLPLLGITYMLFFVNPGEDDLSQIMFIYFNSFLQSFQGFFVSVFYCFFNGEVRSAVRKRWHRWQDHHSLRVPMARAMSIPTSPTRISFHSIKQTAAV
T5 sequence (P24387 whole entry): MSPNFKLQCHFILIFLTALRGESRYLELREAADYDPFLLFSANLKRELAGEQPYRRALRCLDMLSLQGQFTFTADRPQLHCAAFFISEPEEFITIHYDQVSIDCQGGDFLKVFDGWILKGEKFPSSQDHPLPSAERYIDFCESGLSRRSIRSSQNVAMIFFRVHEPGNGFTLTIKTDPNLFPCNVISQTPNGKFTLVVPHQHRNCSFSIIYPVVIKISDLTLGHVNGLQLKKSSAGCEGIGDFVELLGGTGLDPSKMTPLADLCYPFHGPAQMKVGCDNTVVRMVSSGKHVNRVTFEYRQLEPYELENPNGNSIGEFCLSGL

[5] = biological target: T5, Corticotropin-releasing factor receptor 2/Corticotropin-releasing factor-binding protein; assay: activators of CRF receptor 2 with binding protein – uHTS hits, confirmation (AID 602473); format: functional; details: read-out: EC50_Mean
Cytochrome P450 2D6 = Cytochrome P450 2D6 (Homo sapiens, UniProt P10635);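 also: CYP2D6 member of a cytochrome P450 panel assay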
Cytochrome P450 2C9 = Cytochrome P450 2C9 (Homo sapiens, UniProt P11712)
[6] = biological target: T6, Heat shock factor protein 1 (Mus musculus, UniProt P38532); assay: enhancement of HSF1-driven luciferase signal – cell-based, NIH3T3, luminescence, dose retest, confirmation (AID 435004); format: functional;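 also: stress induced by proteasome inhibitor MG132 added 30 min after compound; luciferase reporter driven by HSF1 response element in NIH3T3 cells; actives raise luminescence as potentiators of the MG132 stress response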
T6 sequence (P38532 whole entry): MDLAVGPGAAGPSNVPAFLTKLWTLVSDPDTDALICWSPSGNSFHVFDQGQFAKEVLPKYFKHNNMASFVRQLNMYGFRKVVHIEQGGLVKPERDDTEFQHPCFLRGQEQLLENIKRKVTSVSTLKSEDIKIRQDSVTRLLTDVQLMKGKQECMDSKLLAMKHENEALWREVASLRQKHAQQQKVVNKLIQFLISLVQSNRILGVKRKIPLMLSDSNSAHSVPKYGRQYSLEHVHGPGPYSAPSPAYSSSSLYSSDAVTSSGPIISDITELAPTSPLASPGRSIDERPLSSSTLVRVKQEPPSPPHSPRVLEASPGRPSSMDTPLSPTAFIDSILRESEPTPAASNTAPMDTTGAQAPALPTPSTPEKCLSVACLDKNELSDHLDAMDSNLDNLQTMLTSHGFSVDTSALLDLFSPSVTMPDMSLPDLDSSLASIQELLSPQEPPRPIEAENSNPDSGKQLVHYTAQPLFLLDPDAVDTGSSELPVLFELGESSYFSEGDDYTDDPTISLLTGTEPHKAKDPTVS

Sequence of Cytochrome P450 2C9 (P11712 whole entry): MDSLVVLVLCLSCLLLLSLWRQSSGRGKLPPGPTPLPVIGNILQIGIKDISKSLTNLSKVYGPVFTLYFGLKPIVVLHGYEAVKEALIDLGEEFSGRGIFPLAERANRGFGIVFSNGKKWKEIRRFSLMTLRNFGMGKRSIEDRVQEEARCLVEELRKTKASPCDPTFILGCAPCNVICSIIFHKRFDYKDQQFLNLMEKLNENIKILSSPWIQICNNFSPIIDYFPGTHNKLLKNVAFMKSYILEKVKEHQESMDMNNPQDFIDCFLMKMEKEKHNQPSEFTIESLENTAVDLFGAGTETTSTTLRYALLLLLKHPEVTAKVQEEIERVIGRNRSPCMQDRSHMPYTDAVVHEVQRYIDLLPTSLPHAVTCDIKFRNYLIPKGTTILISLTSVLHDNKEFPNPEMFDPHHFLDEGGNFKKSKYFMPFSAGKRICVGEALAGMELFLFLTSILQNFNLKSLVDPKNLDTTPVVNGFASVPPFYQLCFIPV
Sequence of Cytochrome P450 2D6 (P10635 whole entry): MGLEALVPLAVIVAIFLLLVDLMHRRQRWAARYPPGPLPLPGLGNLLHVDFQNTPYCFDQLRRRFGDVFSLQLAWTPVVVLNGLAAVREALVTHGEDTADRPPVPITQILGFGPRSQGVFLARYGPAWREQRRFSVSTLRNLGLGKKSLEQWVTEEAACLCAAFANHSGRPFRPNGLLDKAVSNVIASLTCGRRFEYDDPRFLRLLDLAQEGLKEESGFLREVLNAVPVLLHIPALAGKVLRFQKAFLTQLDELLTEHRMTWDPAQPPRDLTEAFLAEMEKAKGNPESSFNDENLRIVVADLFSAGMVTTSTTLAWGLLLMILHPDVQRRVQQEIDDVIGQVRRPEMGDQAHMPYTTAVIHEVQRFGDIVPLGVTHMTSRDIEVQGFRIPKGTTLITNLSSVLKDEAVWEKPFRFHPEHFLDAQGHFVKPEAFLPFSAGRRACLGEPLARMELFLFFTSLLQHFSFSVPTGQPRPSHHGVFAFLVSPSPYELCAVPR

| SMILES | IC50 (Caspase-3) | IC50 [1] | IC50 [2] | IC50 [3] | IC50 [4] | EC50 [5] | AC50 (Cytochrome P450 2D6) | AC50 (Cytochrome P450 2C9) | EC50 [6] |
| --- | --- | --- | --- | --- | --- | --- | --- | --- | --- |
| COc1ccc(C(=O)O/N=C(\N)c2ccc(OC)c(OC)c2)cc1 | 13.3 µM (active) | 8.96 µM (active) | 11.5 µM (active) | 11.5 µM (active) |  |  |  |  |  |
| COc1ccc(-c2cc(-c3cc(C)ccc3O)n[nH]2)cc1 | 44.2 µM (active) | 4.46 µM (active) | 10.3 µM (active) | 9.6 µM (active) |  |  |  |  |  |
| CC(=O)c1c(C)oc2ccc(OCc3ccccc3)cc12 | 39 µM (active) | 11.4 µM (active) | 45.3 µM (active) | 75.8 µM (active) |  |  |  |  |  |
| O=C(Nc1cccs1)Nc1ccc(Br)cc1F | 45.8 µM (active) | 11.4 µM (active) | 86.7 µM (active) | > 100 µM (inactive) |  |  |  |  |  |
| COC(=O)c1sccc1NC(=O)Cc1ccc(Br)cc1 | 17.9 µM (active) | 7.65 µM (active) | 20.3 µM (active) | 24.8 µM (active) |  |  |  |  |  |
| O=c1oc(-c2ccco2)nc2sc3c(c12)CCCC3 | 41.7 µM (active) | 5.4 µM (active) | 35.1 µM (active) | > 100 µM (inactive) | > 47.1 µM (inactive) | > 53 µM (inactive) |  |  |  |
| O=C(Nc1ccc(Cl)cn1)c1ccc(Oc2ccccc2)cc1 | 5.66 µM (active) | 2.3 µM (active) | 3.22 µM (active) | 3.37 µM (active) |  |  |  |  |  |
| Cc1cc(C)nc(NC(=O)/C=C/c2ccc(Cl)cc2Cl)c1 | 14.1 µM (active) | 3.39 µM (active) | 3.51 µM (active) | 3.93 µM (active) |  |  | 20 µM (inconclusive) | inconclusive |  |
| COc1ccc(/N=C(\C)C2=C(O)c3ccccc3C2=O)cc1 | 4.38 µM (active) | 1.99 µM (active) | 5.08 µM (active) | 6.43 µM (active) |  |  |  |  | > 260 µM (inactive) |
| O=C(O/N=C1\CCCc2ccccc21)c1ccc(F)cc1 | 2.23 µM (active) | 2.15 µM (active) | 2.34 µM (active) | 2.09 µM (active) |  |  |  |  |  |
